Assay results: US4337199A, “Antibiotic β-lactam compounds, production thereof, and their use as antimicrobial agent” (Sanraku-Ocean Co., Ltd., priority 1978, dated 1982)
Converted amounts (≈) assume the structure as drawn.

Key:
Alcaligenes faecalis A 1 = experiment: minimum inhibitory concentration, agar dilution assay; format: cell-based; conditions: A1, agar dilution, 35° C., 20 hours, read-out: minimum inhibitory concentration
Summary of the method: (§1)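 Two-fold compound dilutions were incorporated into heart infusion agar. Plates were inoculated with overnight Trypto-Soy broth cultures (35 °C, 18-20 h) diluted to about 10^8 cells/ml. After 20 h at 35 °C, MIC was taken as the lowest concentration with no growth.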

[1] = test system: Bacillus subtilis ATCC 6633; experiment: as above; format: cell-based; conditions: ATCC6633, agar dilution, 35° C., 20 hours, read-out: minimum inhibitory concentration
Summary of the method: as §1

[2] = test system: Citrobacter freundii GN 346; experiment: as above; format: cell-based; conditions: GN346, agar dilution, 35° C., 20 hours, read-out: minimum inhibitory concentration
Summary of the method: as §1

[3] = test system: Comamonas terrigena B-996; experiment: as above; format: cell-based; conditions: B996, agar dilution, 35° C., 20 hours, read-out: minimum inhibitory concentration
Summary of the method: as §1

[4] = test system: Enterobacter aerogenes E19; experiment: as above; format: cell-based; conditions: Klebsiella aerogenes, E19; agar dilution, 35° C., 20 hours; read-out: minimum inhibitory concentration
Summary of the method: as §1

Enterobacter cloacae 45 = experiment: as above; format: cell-based; conditions: Enterobacter cloacae, 45; agar dilution, 35° C., 20 hours; read-out: minimum inhibitory concentration
Summary of the method: as §1

Enterobacter sp. E8 = experiment: as above; format: cell-based; conditions: SP.E8, agar dilution, 35° C., 20 hours, read-out: minimum inhibitory concentration
Summary of the method: as §1

Escherichia coli K-12 = experiment: as above; format: cell-based; conditions: K12, agar dilution, 35° C., 20 hours, read-out: minimum inhibitory concentration
Summary of the method: as §1

Escherichia coli RGN 823 = experiment: as above; format: cell-based; conditions: RGN823, agar dilution, 35° C., 20 hours, read-out: minimum inhibitory concentration
Summary of the method: as §1

[5] = test system: Klebsiella pneumoniae K-13; experiment: as above; format: cell-based; conditions: K13, agar dilution, 35° C., 20 hours, read-out: minimum inhibitory concentration
Summary of the method: as §1

Proteus mirabilis P6 = experiment: as above; format: cell-based; conditions: P6, agar dilution, 35° C., 20 hours, read-out: minimum inhibitory concentration
Summary of the method: as §1

Proteus rettgeri P7 = experiment: as above; format: cell-based; conditions: Providencia rettgeri, P7; agar dilution, 35° C., 20 hours; read-out: minimum inhibitory concentration
Summary of the method: as §1

Proteus sp. P22 = experiment: as above; format: cell-based; conditions: agar dilution, 35° C., 20 hours; read-out: minimum inhibitory concentration
Summary of the method: as §1

Proteus vulgaris GN76 = experiment: as above; format: cell-based; conditions: GN76, agar dilution, 35° C., 20 hours, read-out: minimum inhibitory concentration
Summary of the method: as §1

Providencia sp. P8 = experiment: as above; format: cell-based; conditions: SP.P8, agar dilution, 35° C., 20 hours, read-out: minimum inhibitory concentration
Summary of the method: as §1

[6] = test system: Pseudomonas aeruginosa IFO3445; experiment: as above; format: cell-based; conditions: IFO3445, agar dilution, 35° C., 20 hours, read-out: minimum inhibitory concentration
Summary of the method: as §1

[7] = test system: Pseudomonas aeruginosa NCTC10490; experiment: as above; format: cell-based; conditions: NCTC10490, agar dilution, 35° C., 20 hours, read-out: minimum inhibitory concentration
Summary of the method: as §1

Sarcina lutea = experiment: as above; format: cell-based; conditions: Micrococcus luteus; agar dilution, 35° C., 20 hours; read-out: minimum inhibitory concentration
Summary of the method: as §1

Serratia marcescens S18 = experiment: as above; format: cell-based; conditions: S18, agar dilution, 35° C., 20 hours, read-out: minimum inhibitory concentration
Summary of the method: as §1

Serratia marcescens T55 = experiment: as above; format: cell-based; conditions: T55, agar dilution, 35° C., 20 hours, read-out: minimum inhibitory concentration
Summary of the method: as §1

[8] = test system: Staphylococcus aureus FDA 209P; experiment: as above; format: cell-based; conditions: FDA209P, agar dilution, 35° C., 20 hours, read-out: minimum inhibitory concentration
Summary of the method: as §1

[9] = test system: Staphylococcus aureus Russell; experiment: as above; format: cell-based; conditions: agar dilution, 35° C., 20 hours, read-out: minimum inhibitory concentration
Summary of the method: as §1

[10] = test system: Staphylococcus aureus Smith; experiment: as above; format: cell-based; conditions: agar dilution, 35° C., 20 hours, read-out: minimum inhibitory concentration
Summary of the method: as §1

[11] = test system: Staphylococcus epidermidis; experiment: as above; format: cell-based; conditions: agar dilution, 35° C., 20 hours, read-out: minimum inhibitory concentration
Summary of the method: as §1

solubility = format: physicochemical
[12] = test system: Gram-positive and Gram-negative bacteria; experiment: antibiotic activity (antimicrobial spectrum); format: cell-based; conditions: comparison in words
Description: The minimum inhibitory concentrations of the compounds of formula (I-a-1) or (I-b-1) in Tables I-1 to I-7 and the known compounds in Table I-8 on the various microorganisms shown in the above tables were measured by an agar dilution assay method using a brain heart infusion agar medium "Difco" (a product of Difco Laboratories Inc.)
A sample of the test compound was dissolved in sterile distilled water and diluted to prepare a two-fold dilution series of the compound solution. In a petri plate of 9 cm diameter, 1 ml of the compound solution was added to 9 ml of molten sterile heart infusion agar medium (Difco Laboratories Inc.) at about 60° C. to prepare the compound-containing agar plate. An overnight culture of each test organism indicated in the above table which was prepared by stationary cultivation in Trypto-Soy broth (Eiken Chemi. Co., Ltd.) at 35° C. for 18 to 20 hours, was diluted with the Trypto-Soy broth to give approximately 10^8 cells/ml and the diluted inoculum was inoculated onto the compound-containing agar plates. After cultivating the plates at 35° C. for 20 hours, the growth of the organism was observed. The minimum concentration of the compound at which no growth of the microorganism was noted was determined, and defined as the minimum inhibitory concentration of the test compound.

[13] = test system: Alcaligenes faecalis B326; experiment: minimum inhibitory concentration, agar dilution assay; format: cell-based; conditions: B326, agar dilution, 35° C., 20 hours, read-out: minimum inhibitory concentration
Summary of the method: as §1

SMILES	MIC (Alcaligenes faecalis A 1) [µg/mL]	MIC [1] [µg/mL]	MIC [2] [µg/mL]	MIC [3] [µg/mL]	MIC [4] [µg/mL]	MIC (Enterobacter cloacae 45) [µg/mL]	MIC (Enterobacter sp. E8) [µg/mL]	MIC (Escherichia coli K-12) [µg/mL]	MIC (Escherichia coli RGN 823) [µg/mL]	MIC [5] [µg/mL]	MIC (Proteus mirabilis P6) [µg/mL]	MIC (Proteus rettgeri P7) [µg/mL]	MIC (Proteus sp. P22) [µg/mL]	MIC (Proteus vulgaris GN76) [µg/mL]	MIC (Providencia sp. P8) [µg/mL]	MIC [6] [µg/mL]	MIC [7] [µg/mL]	MIC (Sarcina lutea) [µg/mL]	MIC [8] [µg/mL]	MIC [11] [µg/mL]	further results
CC(=O)NCCSC1=C(C(=O)O)N2C(=O)[C@H](C(C)O)[C@H]2C1 (stereo partly shown) [PS-3A, 3-(2-acetamidoethylthio)-6-(1-hydroxyethyl)-7-oxo-1-azabicyclo[3.2.0]hept-2-ene-2-carboxylic acid, reference compound]	1.25 (≈ 3.98 µM)	1.25 (≈ 3.98 µM)	10 (≈ 31.8 µM)	0.08 (≈ 0.254 µM)	20.1 (≈ 63.9 µM)	10 (≈ 31.8 µM)	5 (≈ 15.9 µM)	2.5 (≈ 7.95 µM)	5 (≈ 15.9 µM)	10 (≈ 31.8 µM)	20.1 (≈ 63.9 µM)	20.1 (≈ 63.9 µM)	20.1 (≈ 63.9 µM)	20.1 (≈ 63.9 µM)	5 (≈ 15.9 µM)	20.1 (≈ 63.9 µM)	20.1 (≈ 63.9 µM)	0.63 (≈ 2 µM)	0.31 (≈ 0.986 µM)	2.5 (≈ 7.95 µM)	MIC (Serratia marcescens S18): 10 µg/mL (≈ 31.8 µM); MIC (Serratia marcescens T55): 20.1 µg/mL (≈ 63.9 µM); MIC [9]: 1.25 µg/mL (≈ 3.98 µM); MIC [10]: 1.25 µg/mL (≈ 3.98 µM); Solubility in acetone (solubility; acetone): substantially insoluble in acetone; Solubility in water (solubility; water): Readily soluble in water
CCC1C(=O)N2C(C(=O)O)=C(SCCNC(C)=O)CC12 (stereo not shown) [PS-5, 3-(2-acetaminothylthio)-6-ethyl-7-oxo-1-azabicyclo-[3.2.0]hept-2-ene-2-carboxylic acid, reference compound]	0.39 (≈ 1.31 µM)	0.1 (≈ 0.335 µM)	3.13 (≈ 10.5 µM)	0.013 (≈ 0.0436 µM)	3.13 (≈ 10.5 µM)	6.25 (≈ 20.9 µM)	1.56 (≈ 5.23 µM)	1.56 (≈ 5.23 µM)	3.13 (≈ 10.5 µM)	6.25 (≈ 20.9 µM)	6.25 (≈ 20.9 µM)	12.5 (≈ 41.9 µM)	25 (≈ 83.8 µM)	12.5 (≈ 41.9 µM)	3.13 (≈ 10.5 µM)	25 (≈ 83.8 µM)	12.5 (≈ 41.9 µM)	0.05 (≈ 0.168 µM)	0.025 (≈ 0.0838 µM)	0.1 (≈ 0.335 µM)	MIC (Serratia marcescens S18): 6.25 µg/mL (≈ 20.9 µM); MIC (Serratia marcescens T55): 6.25 µg/mL (≈ 20.9 µM); MIC [9]: 0.1 µg/mL (≈ 0.335 µM); MIC [10]: 0.1 µg/mL (≈ 0.335 µM); antibiotic activity (in words) [12]: better antibiotic activity than cephazolin (CEZ)
CC(=O)NCCSC1=C(C(=O)O)N2C(=O)C(C(C)C)C2C1 (stereo not shown) [PS-6, 3-(2-acetamidoethylthio)-6-isopropyl-7-oxo-1-azabicyclo[3.2.0]hept-2-ene-2-carboxylic acid, reference compound]	1.56 (≈ 4.99 µM)	0.78 (≈ 2.5 µM)	12.5 (≈ 40 µM)	0.1 (≈ 0.32 µM)	25 (≈ 80 µM)	25 (≈ 80 µM)	6.25 (≈ 20 µM)	6.25 (≈ 20 µM)	6.25 (≈ 20 µM)	25 (≈ 80 µM)	12.5 (≈ 40 µM)	6.25 (≈ 20 µM)	25 (≈ 80 µM)	12.5 (≈ 40 µM)	6.25 (≈ 20 µM)	50 (≈ 160 µM)	50 (≈ 160 µM)	0.39 (≈ 1.25 µM)	0.1 (≈ 0.32 µM)	0.39 (≈ 1.25 µM)	MIC (Serratia marcescens S18): 25 µg/mL (≈ 80 µM); MIC (Serratia marcescens T55): 50 µg/mL (≈ 160 µM); MIC [9]: 0.2 µg/mL (≈ 0.64 µM); MIC [10]: 0.2 µg/mL (≈ 0.64 µM); antibiotic activity (in words) [12]: better antibiotic activity than cephazolin (CEZ)
CCCCSC1=C(C(=O)O)N2C(=O)C(C(C)C)C2C1 (stereo not shown) [R1 CH3, R21 (CH2CH3)3]		15 (≈ 52.9 µM)		0.48 (≈ 1.69 µM)														7.5 (≈ 26.5 µM)	0.48 (≈ 1.69 µM)	0.12 (≈ 0.423 µM)	MIC [13]: 20 µg/mL (≈ 70.6 µM)
